What was measured:
pigweed = test: Test B pre/postemergence pigweed; assay type: in vivo, Amaranthus retroflexus
Procedure, shortened: (§1)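 Herbicidal effect was estimated by eye on a ten-point control scale after plants spent twelve to sixteen days in a greenhouse following soil or foliar treatment. Foliar sprays targeted plants at one to four leaves; all doses were formulated in a non-phytotoxic solvent with surfactant.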

rice = test: Test B flood test rice; assay type: in vivo, Oryza sativa
Procedure, shortened: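 Flood test on plants grown to the 2-leaf stage; treated plants kept in greenhouse twelve to sixteen days, then visually rated against controls on a 0 (no effect) to 10 (complete control) scale.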

sugar beet = test: Test B pre/postemergence sugar beet; assay type: in vivo, Beta vulgaris
Procedure, shortened: as §1

purple nutsedge = test: Test B pre/postemergence purple nutsedge; assay type: in vivo, Cyperus rotundus
Procedure, shortened: as §1

[1] = Postemergence, Rate 1000 g/ha, scale 0 to 10 (0 no effect, 10 complete control)
[2] = Preemergence, Rate 250 g/ha, scale of 0 to 10 where 0 is no effect and 10 is complete control
[3] = Preemergence, Rate 500 g/ha, scale of 0 to 10 where 0 is no effect and 10 is complete control
[4] = Rate 125 g/ha, Postemergence, scale of 0 to 10 where 0 is no effect and 10 is complete control
[5] = Rate 250 g/ha, Postemergence, scale of 0 to 10 where 0 is no effect and 10 is complete control
[6] = Rate 1000 g/ha, Preemergence, scale 0 to 10 (0 no effect, 10 complete control)
[7] = Rate 125 g/ha, Pre-emergence, flood test species, scale 0 to 10 where 0 is no effect and 10 is complete control
[8] = Rate 250 g/ha, Pre-emergence, flood-test species, scale 0 to 10, 0 is no effect, 10 is complete control
[9] = Postemergence, Rate 31 g/ha, visual rating, scale 0 to 10 (0 no effect, 10 complete control)
[10] = Preemergence, Rate 62 g/ha, scale of 0 to 10 where 0 is no effect and 10 is complete control
[11] = Rate 62 g/ha, Postemergence, scale 0 to 10, 0 no effect, 10 complete control

Q: What does the source list for `CCOC(=O)C(C)N(C(=O)n1oc(=O)n(C(C)C)c1=O)c1ccc(F)cc1` (centres unmarked) [Compound 302]?
A: Redroot pigweed plant response rating (pigweed; [1]): 3; Redroot pigweed plant response rating (0 to 10 scale) (pigweed; Preemergence, Rate 125 g/ha): 0; Redroot pigweed plant response rating (pigweed; [2]): 0; Redroot pigweed plant response rating (pigweed; [3]): 0; Redroot pigweed plant response rating (pigweed; [4]): 1; Plant response rating, Redroot pigweed (pigweed; [5]): 2; Plant response rating, Redroot pigweed (pigweed; [6]): 3; Rice plant response rating (rice; Pre-emergence, Rate 1000 g/ha, scale 0 to 10 (0 no effect, 10 complete control)): 0; Rice plant response rating (rice; [7]): 0; Rice plant response rating (rice; [8]): 0; Rice plant response rating (rice; Rate 500 g/ha, Pre-emergence, flood test species, scale 0 to 10 (0 no effect, 10 complete control)): 0; Sugarbeets plant response rating (sugar beet; [1]): 2; Sugarbeets plant response rating (0 to 10 scale) (sugar beet; Preemergence, Rate 125 g/ha): 0; Sugarbeets plant response rating (sugar beet; [2]): 2; Sugarbeets plant response rating (sugar beet; [3]): 2; Sugarbeets plant response rating (sugar beet; [4]): 0; Plant response rating, Sugarbeets (sugar beet; [5]): 1; Plant response rating, Sugarbeets (sugar beet; [6]): 4; Nutsedge plant response rating (purple nutsedge; [1]): 0; Nutsedge plant response rating (0 to 10 scale) (purple nutsedge; Preemergence, Rate 125 g/ha): 0; Nutsedge plant response rating (purple nutsedge; [2]): 0; Nutsedge plant response rating (purple nutsedge; [3]): 0; Nutsedge plant response rating (purple nutsedge; [4]): 0; Plant response rating, Nutsedge (purple nutsedge; [5]): 0; Plant response rating, Nutsedge (purple nutsedge; [6]): 0

Q: How did the “Redroot pigweed plant response rating” value (pigweed; [9]) turn out when `COCC(C)N(C(=O)n1oc(=O)n(-c2ccccc2C)c1=O)c1ccc(F)cc1` (centres unmarked) [Compound 324] was run?
A: 0

Q: And the “Redroot pigweed plant response rating” value (pigweed; [10])?
A: 0

Q: What about the “Redroot pigweed plant response rating (0 to 10 scale)” value (pigweed; Preemergence, Rate 125 g/ha) of the same compound?
A: 0

Q: What about the “Redroot pigweed plant response rating” value (pigweed; [2]) of the same compound?
A: 0

Q: What about the “Redroot pigweed plant response rating” value (pigweed; [11]) of the same compound?
A: 0

Q: And the “Redroot pigweed plant response rating” value (pigweed; [4])?
A: 0

Q: What about the “Plant response rating, Redroot pigweed” value (pigweed; [5]) of the same compound?
A: 0

Q: And the “Rice plant response rating” value (rice; Rate 31 g/ha, Pre-emergence section (flood test species), scale 0 to 10)?
A: 0

Q: What about the “Rice plant response rating” value (rice; Rate 62 g/ha, headed Pre-emergence (flood test species), scale 0 to 10 (0 no effect, 10 complete control)) of the same compound?
A: 0

Q: And the “Rice plant response rating” value (rice; [7])?
A: 0

Q: What about the “Rice plant response rating” value (rice; [8]) of the same compound?
A: 0

Q: And the “Sugarbeets plant response rating” value (sugar beet; [9])?
A: 0

Q: And the “Sugarbeets plant response rating” value (sugar beet; [10])?
A: 0

Q: And the “Sugarbeets plant response rating (0 to 10 scale)” value (sugar beet; Preemergence, Rate 125 g/ha)?
A: 0

Q: What about the “Sugarbeets plant response rating” value (sugar beet; [2]) of the same compound?
A: 0

Q: What about the “Sugarbeets plant response rating” value (sugar beet; [11]) of the same compound?
A: 0

Q: And the “Sugarbeets plant response rating” value (sugar beet; [4])?
A: 0

Q: And the “Plant response rating, Sugarbeets” value (sugar beet; [5])?
A: 0

Q: What about the “Nutsedge plant response rating” value (purple nutsedge; [9]) of the same compound?
A: 0

Q: What about the “Nutsedge plant response rating” value (purple nutsedge; [10]) of the same compound?
A: 0

Q: What about the “Nutsedge plant response rating (0 to 10 scale)” value (purple nutsedge; Preemergence, Rate 125 g/ha) of the same compound?
A: 0

Q: What about the “Nutsedge plant response rating” value (purple nutsedge; [2]) of the same compound?
A: 0

Q: And the “Nutsedge plant response rating” value (purple nutsedge; [11])?
A: 0

Q: And the “Nutsedge plant response rating” value (purple nutsedge; [4])?
A: 0

Q: And the “Plant response rating, Nutsedge” value (purple nutsedge; [5])?
A: 0

From patent US6737383B1, “Herbicidal oxadiazolidines” (priority 1999, dated 2004)
